From ChEMBL document CHEMBL1201862, “PubChem BioAssay data set” (2004)
Active and inactive are the calls of the source.

How the values were obtained:
[1] = cells; assay type: functional, cell-based
[2] = cells; assay type: functional, cell-based; remark: listed apart in the source
[3] = biological target: Dual specificity tyrosine-phosphorylation-regulated kinase 1A (Rattus norvegicus, UniProt Q63470); assay type: biochemical, Homo sapiens
[4] = Luminescence Cell-Based Dose Response HTS to Identify Activators of Luciferase Translation or Activity in H4 […] Cells. [Related pubchem assays: 1829 (Project Summary), 1814 (Primary HTS)]; assay type: functional
[5] = biological target: Paired box protein Pax-8 (Homo sapiens, UniProt Q06710); assay: PAX8 transcriptional activity inhibition in RMG-I – RMG-I cells, luciferase, cherry-pick, dose response (AID 687027); assay type: functional, cell-based;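 note: luciferase reporter driven by Pax8 target thyroperoxidase promoter measured by SteadyGlo luminescence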
[6] = Luminescence Cell-Based Dose Confirmation HTS to Identify Activators of 5'UTR Stem-Loop Driven Alpha-Synuclein mRNA Translation in H4 Neuroglioblastoma Cells. [Related pubchem assays: 1829 (Project Summary), 1814 (Primary HTS)]; assay type: functional
[7] = Trypanosoma cruzi growth suppression in host cells – NIH3T3 host cells, beta-gal luminescence, confirmation (AID 2044); assay type: functional, cell-based;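 note: intracellular parasites grown in NIH/3T3 mouse fibroblasts as host cells; luminescent beta-galactosidase reporter signal from transgenic T. cruzi replicating inside host cells; inhibitors lower the luminescence signal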
[8] = system: H4; assay: Luminescence Cell-Based Dose Response HTS to Identify Activators of 5'UTR Stem-Loop Driven Prion Protein mRNA Translation in H4 Neuroglioblastoma Cells. [Related pubchem assays: 1829 (Project Summary), 1814 (Primary HTS)]; assay type: functional; conditions: Homo sapiens
[9] = reduced cellular PGC1a acetyl-lysine signal – cell-based, cherry-picked samples, dose response (AID 720514); assay type: functional;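 note: potency may reflect raised or lowered acetylation signal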
[10] = NIH3T3 cell viability loss – ATP luminescence, mouse fibroblasts, counter-screen, dose response (AID 2010); assay type: functional, cell-based;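 note: cells exposed to compound for about 90 hours before reading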
[11] = biological target: T1, Carboxy-terminal domain RNA polymerase II polypeptide A small phosphatase 1 (Homo sapiens, UniProt Q9GZU7); assay: CTDSP1 inhibitors, concentration-response, biochemical, absorbance readout, ultra-high-throughput screen actives (AID 540297); assay type: functional
T1 sequence (Q9GZU7 whole entry): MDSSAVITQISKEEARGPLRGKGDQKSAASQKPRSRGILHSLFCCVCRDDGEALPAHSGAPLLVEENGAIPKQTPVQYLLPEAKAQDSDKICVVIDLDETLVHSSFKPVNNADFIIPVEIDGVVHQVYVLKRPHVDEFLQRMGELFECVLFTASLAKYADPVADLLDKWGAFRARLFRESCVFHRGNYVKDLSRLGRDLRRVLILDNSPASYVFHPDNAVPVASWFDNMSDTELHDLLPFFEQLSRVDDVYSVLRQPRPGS

[12] = biological target: Cytochrome P450 2C19 (Homo sapiens, UniProt P33261); assay: Cytochrome panel assay with activity outcomes. Panel member name: p450-cyp2c19 Compounds with AC50 equal or less than 10 uM are considered active; assay type: functional; conditions: read-out: AC50
[13] = biological target: T2, Long-chain-fatty-acid--AMP ligase FadD28 (Mycobacterium tuberculosis, UniProt P9WQ59); assay: Fluorescence polarization aasay to screen for inhibitors that compete for the binding of FadD28 to a bisubstrate Measured in Biochemical System Using Plate Reader - 2147-01_Inhibitor_Dose_CherryPick_Activity.; assay type: functional, Mycobacterium tuberculosis H37Rv
T2 sequence (P9WQ59 whole entry): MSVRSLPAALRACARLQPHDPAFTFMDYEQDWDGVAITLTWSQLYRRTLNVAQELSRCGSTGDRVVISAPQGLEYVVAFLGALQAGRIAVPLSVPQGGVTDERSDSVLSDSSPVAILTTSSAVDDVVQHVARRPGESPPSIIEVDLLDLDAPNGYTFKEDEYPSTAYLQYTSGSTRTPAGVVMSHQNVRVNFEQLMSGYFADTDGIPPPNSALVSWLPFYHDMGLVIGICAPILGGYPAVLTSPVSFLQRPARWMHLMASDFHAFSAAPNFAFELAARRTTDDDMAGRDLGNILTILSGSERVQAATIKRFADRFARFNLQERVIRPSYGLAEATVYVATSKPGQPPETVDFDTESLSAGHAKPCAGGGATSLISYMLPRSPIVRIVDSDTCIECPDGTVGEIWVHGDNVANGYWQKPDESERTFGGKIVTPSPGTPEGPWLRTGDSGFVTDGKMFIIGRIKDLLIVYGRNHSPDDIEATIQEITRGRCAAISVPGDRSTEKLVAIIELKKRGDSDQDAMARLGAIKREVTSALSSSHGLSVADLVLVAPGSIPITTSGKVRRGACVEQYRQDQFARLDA

[14] = biological target: T3, Calpain-2 catalytic subunit (Sus scrofa, UniProt P43367); assay: m-calpain protease blockers, concentration series – biochemical, fluorogenic peptide substrate, dose response (AID 1420); assay type: functional
T3 sequence (P43367 whole entry): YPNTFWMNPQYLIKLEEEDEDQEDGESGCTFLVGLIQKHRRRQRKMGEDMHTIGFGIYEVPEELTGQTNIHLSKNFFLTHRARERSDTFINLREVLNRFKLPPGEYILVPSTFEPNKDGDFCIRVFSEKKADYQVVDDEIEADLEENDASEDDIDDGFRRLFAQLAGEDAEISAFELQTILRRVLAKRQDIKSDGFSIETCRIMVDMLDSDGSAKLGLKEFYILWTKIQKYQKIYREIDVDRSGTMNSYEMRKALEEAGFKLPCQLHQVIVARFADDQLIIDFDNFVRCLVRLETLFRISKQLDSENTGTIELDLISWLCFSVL

[15] = biological target: T4, Leucine aminopeptidase (Plasmodium falciparum 3D7, UniProt Q8IL11); assay: P. falciparum M17LAP inhibitors, primary screen, biochemical, fluorogenic H-Leu-NHMec substrate, 1536-well (AID 1619); assay type: functional
T4 sequence (Q8IL11 whole entry): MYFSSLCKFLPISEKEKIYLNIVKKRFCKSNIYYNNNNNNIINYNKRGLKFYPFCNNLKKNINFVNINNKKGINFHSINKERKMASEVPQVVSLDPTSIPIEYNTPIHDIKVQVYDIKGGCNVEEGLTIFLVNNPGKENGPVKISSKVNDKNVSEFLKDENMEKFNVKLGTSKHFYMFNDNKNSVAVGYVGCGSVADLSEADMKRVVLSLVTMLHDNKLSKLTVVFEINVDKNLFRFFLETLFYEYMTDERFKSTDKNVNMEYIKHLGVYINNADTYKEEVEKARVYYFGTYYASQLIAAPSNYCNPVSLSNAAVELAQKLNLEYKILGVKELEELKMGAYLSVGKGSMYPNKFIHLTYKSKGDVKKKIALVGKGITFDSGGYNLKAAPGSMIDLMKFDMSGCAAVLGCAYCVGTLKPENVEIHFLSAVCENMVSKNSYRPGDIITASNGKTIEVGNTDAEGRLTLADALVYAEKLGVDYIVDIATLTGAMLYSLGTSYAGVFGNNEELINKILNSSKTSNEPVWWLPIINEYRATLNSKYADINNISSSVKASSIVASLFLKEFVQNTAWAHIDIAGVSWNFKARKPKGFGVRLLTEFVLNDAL

[16] = OVCAR-3 cell viability loss – plate reader, dry powder samples, PAX8 inhibitor project, dose response (AID 743044); assay type: functional, cell-based
[17] = A549 cell cytotoxicity, dose response, cytotoxicity control, plate reader, cherry-pick, antagonist series (AID 743412); assay type: functional, cell-based
[18] = OVCAR8 cell viability loss – plate reader, dry powder samples, PAX8 project, dose response (AID 743197); assay type: functional, cell-based; conditions: OVCAR-8
[19] = biological target: T5, Corticotropin-releasing factor receptor 2/Corticotropin-releasing factor-binding protein (Homo sapiens, UniProt P24387+Q13324); assay: activators of CRF receptor 2 with binding protein – uHTS hits, confirmation (AID 602473); assay type: functional; conditions: read-out: EC50_Mean
T5 sequence (Q13324 whole entry): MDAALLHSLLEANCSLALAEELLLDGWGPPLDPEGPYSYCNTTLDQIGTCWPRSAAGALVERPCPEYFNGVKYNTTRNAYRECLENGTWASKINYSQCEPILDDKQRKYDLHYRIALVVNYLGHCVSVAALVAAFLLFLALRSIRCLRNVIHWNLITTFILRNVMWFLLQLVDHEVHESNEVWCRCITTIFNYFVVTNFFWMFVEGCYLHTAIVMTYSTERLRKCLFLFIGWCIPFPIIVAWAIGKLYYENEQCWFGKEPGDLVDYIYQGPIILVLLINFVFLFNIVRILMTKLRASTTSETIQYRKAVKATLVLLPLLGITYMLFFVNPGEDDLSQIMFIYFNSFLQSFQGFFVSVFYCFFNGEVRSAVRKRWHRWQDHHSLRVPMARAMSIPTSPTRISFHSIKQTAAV
T5 sequence (P24387 whole entry): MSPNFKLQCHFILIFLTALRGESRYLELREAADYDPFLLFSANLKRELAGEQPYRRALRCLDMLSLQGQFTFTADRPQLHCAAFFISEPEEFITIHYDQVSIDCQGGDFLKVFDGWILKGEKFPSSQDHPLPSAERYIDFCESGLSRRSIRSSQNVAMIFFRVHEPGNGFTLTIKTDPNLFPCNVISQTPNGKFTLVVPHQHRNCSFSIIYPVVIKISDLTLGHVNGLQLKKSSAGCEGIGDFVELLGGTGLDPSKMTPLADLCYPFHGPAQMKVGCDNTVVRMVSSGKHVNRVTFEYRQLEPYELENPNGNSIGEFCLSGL

[20] = biological target: T5, Corticotropin-releasing factor receptor 2/Corticotropin-releasing factor-binding protein; assay: Dose Response confirmation of uHTS hits for small molecule antagonists of the CRF-binding protein and CRF-R2 receptor complex.; assay type: functional; conditions: read-out: IC50_Mean
[21] = off-target signal loss in HeLa-CEM21 co-culture – HeLa F-luc CTL cells, cherry-picked, counter-screen for HIV-1 Env fusion inhibitor project, dose response (AID 652040); assay type: functional, cell-based;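 note: potency for signal decrease marking cytotoxic or nonspecific inhibition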
[22] = blockers of HIV-1 ZM109 envelope-driven cell-cell fusion – HeLa effector, CEM target cells, luciferase, cherry-pick, dose response (AID 652058); assay type: functional, cell-based;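 note: luciferase signal from HIV-1 Env mediated cell-cell fusion of effector and target cells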
[23] = blockers of HIV-1 envelope-mediated cell-cell fusion – cherry-pick, dose response (AID 652057); assay type: functional, cell-based

Sequence of Paired box protein Pax-8 (Q06710 whole entry): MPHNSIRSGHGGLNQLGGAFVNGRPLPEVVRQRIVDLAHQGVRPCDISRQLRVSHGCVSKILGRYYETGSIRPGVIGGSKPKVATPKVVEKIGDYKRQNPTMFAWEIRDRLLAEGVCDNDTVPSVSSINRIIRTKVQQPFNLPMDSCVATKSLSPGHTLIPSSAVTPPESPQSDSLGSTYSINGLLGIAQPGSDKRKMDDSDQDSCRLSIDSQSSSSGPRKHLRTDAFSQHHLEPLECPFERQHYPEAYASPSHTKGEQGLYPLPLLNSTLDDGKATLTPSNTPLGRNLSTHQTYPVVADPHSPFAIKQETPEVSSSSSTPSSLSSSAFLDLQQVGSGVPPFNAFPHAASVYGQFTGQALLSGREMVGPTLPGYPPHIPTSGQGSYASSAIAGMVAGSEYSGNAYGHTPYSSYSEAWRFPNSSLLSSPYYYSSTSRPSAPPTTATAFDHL
Sequence of Cytochrome P450 2C19 (P33261 whole entry): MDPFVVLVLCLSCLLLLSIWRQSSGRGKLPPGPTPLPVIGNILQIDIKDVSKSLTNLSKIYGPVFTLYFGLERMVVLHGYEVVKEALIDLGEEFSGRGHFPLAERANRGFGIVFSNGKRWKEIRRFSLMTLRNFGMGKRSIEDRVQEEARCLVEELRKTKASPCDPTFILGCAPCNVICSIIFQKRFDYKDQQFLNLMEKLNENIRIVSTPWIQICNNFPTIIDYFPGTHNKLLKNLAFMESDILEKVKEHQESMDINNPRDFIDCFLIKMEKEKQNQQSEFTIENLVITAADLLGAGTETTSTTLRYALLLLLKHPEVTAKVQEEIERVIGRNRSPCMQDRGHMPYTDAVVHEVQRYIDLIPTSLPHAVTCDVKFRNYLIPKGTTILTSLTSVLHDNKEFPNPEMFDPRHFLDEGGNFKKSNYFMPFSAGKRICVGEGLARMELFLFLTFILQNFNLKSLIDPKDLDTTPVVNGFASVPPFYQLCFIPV

In the case of `CCCC1CCC(=C(C#N)C(N)=O)CC1` (centres undefined), the EC50 [1] is reported as 41.6 µM (active) and the EC50 [2] is reported as > 350 µM (not active).
In the case of `Clc1ccc2[nH]c(COc3ccccc3)nc2c1`, the AC50 [3] is reported as 6.23 µM (active).
With `Cc1ccc(-c2cc(C(=O)N3CCCCCC3)no2)cc1` the EC50 [1] was 10.2 µM (active) and the EC50 [2] was > 350 µM (not active).
For `N#CC1(NC(=O)Cn2ncc(Cl)c(Cl)c2=O)CCCCC1`, the EC50 [4] was > 60 µM (not active), the AC50 [5] was 3.01 µM (active) and the EC50 [6] was > 120 µM (not active). The EC50 [7] was 2.22 µM (active), the EC50 [8] was > 120 µM (not active) and the AC50 [9] was 10.8 µM (active). For the same molecule, the EC50 [10] was 3.27 µM (active).
With `NC(=O)COc1ccc(/C=N\NC(=O)c2ccc(-c3ccccc3)cc2)cc1` the IC50 [11] was 6.66 µM (active).
For `Cc1cccc(NC(=O)Cn2c(=O)n3nc(CCn4nc(C)cc4C)nc3c3ccccc32)c1`, the AC50 [12] was 35.5 nM (inconclusive) and the AC50 [13] was 44.4 µM (active).
In the case of `O=C(COn1nnc2ccc(Cl)cc21)NC12CC3CC(CC(C3)C1)C2`, the IC50 [14] is reported as > 50 µM (not active) and the AC50 [9] is reported as 31.5 µM (active).
In the case of `COc1ccccc1OCC(=O)N/N=C/c1c(O)ccc2ccccc12`, the EC50 [1] is reported as > 350 µM (not active) and the EC50 [2] is reported as 10.8 µM (active).
With `Cc1cc(C(=O)O)ccc1-c1ccc(/C=C2\NC(=O)N(Cc3ccccc3Cl)C2=O)o1` the IC50 [11] was 7.71 µM (active) and the IC50 [15] was 13.6 µM (active).
For `C[C@@H]1CN([C@@H](C)CO)C(=O)Cc2cc(NC(=O)Nc3ccc(C(F)(F)F)cc3)ccc2O[C@H]1CN(C)C(=O)NC1CCCCC1`, the AC50 [16] was 54 µM (active) and the AC50 [5] was 8.4 µM (active).
In the case of `CCCC[n+]1ccc(-c2nc3cc([N+](=O)[O-])ccc3[nH]2)cc1`, the AC50 [3] is reported as 2.24 µM (active).
In the case of `C=CCOc1ccc(/C=C2\SC(Nc3cccnc3)=NC2=O)cc1`, the EC50 [1] is reported as > 350 µM (not active), the EC50 [2] is reported as > 350 µM (not active) and the AC50 [3] is reported as 2.93 µM (active).
With `CCC(=O)N(C)C[C@H]1Oc2cc(C#CCC(C)C)ccc2S(=O)(=O)N([C@H](C)CO)C[C@@H]1C` the AC50 [17] was 32.1 µM (active).
In the case of `FC(F)Oc1ccc(NC(S)=Nc2ccc3c[nH]nc3c2)cc1`, the EC50 [1] is reported as > 350 µM (not active) and the EC50 [2] is reported as > 350 µM (not active).
In the case of `Cc1ccc(-c2cc(C(=O)Nc3cccnc3)c3ccccc3n2)o1`, the IC50 [11] is reported as 9.9 µM (active).
In the case of `C[C@H]1CCCCO[C@@H](CN(C)Cc2ccc(C(F)(F)F)cc2)[C@@H](C)CN([C@@H](C)CO)C(=O)c2cc(NC(=O)Nc3ccc(F)cc3)ccc2O1`, the AC50 [16] is reported as 66.3 µM (active), the AC50 [5] is reported as 5.26 µM (active) and the AC50 [18] is reported as 56 µM (active).
With `COc1ccc(/C=C/C(=O)NCCSCc2ccco2)cc1OC` the EC50 [19] was > 53 µM (inactive), the EC50 [1] was > 350 µM (not active) and the EC50 [2] was > 350 µM (not active). The IC50 [20] was > 47.1 µM (inactive).
For `O=C(Nc1cccc(-c2nc3cccnc3s2)c1)c1cccnc1Cl`, the AC50 [3] was 0.651 µM (active).
For `O=C(O)c1ccc(CSc2nc3ccc(NC(=O)c4ccccc4C(=O)O)cc3s2)cc1`, the IC50 [11] was 6.66 µM (active).
With `CCOC(=O)c1ccc(NC2c3ncccc3C(=O)N2Cc2ccc(F)cc2)cc1` (centres undefined) the AC50 [21] was 2.84 µM (active), the AC50 [22] was 521 nM (active) and the AC50 [23] was 3.06 µM (active).
With `Nc1nc(-c2cccs2)c(-c2cccs2)s1` the AC50 [13] was > 100 µM (inactive).
